Laboratory results: publication PMC4745691, “New therapeutic strategies in neuroblastoma: combined targeting of a novel tyrosine kinase inhibitor and liposomal siRNAs against ALK” (Oncotarget, 2015)

Test: Tolerability in subcutaneous NB model (MTD, adverse effects, body weight)
Assay type: in vivo
Conditions: 50 mg/kg BID oral gavage, NB-bearing mice
Procedure: In other set of experiments, Balb/c nude mice were xenografted with SH-SY5Y cells as earlier. […] Tumors were measured twice weekly using callipers, and volume was calculated using the formula: Length × Width^2 × 0.5. Body weight was also assessed twice weekly. The experiment was terminated after 3 weeks of treatment.

## C[C@@H](Oc1cc(-c2cnn(C3CCNCC3)c2)cnc1N)c1c(Cl)ccc(F)c1Cl [crizotinib, Crizotinib]
  mice weight over time: No signs of severe weight
